Data set [1] addresses T1, human amylin receptor (amylin 3(a) receptor: human calcitonin receptor + RAMP-3) (Homo sapiens, UniProt O60896+P30988).
T1 construct: expressed in transfected cells; host or cells: BHK570
T1 sequence (P30988 25-474): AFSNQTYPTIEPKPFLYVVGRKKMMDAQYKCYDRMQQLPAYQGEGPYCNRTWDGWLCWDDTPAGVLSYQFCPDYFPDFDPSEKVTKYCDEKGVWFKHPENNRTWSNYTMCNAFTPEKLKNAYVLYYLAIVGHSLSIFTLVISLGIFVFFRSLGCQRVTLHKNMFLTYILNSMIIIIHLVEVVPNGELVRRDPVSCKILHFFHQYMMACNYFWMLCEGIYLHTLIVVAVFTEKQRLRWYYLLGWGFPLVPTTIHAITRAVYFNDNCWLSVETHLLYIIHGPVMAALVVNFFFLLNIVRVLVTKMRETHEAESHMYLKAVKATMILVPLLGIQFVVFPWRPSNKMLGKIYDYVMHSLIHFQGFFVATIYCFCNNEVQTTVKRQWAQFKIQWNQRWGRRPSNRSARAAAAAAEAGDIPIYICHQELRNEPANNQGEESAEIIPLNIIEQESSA
T1 sequence (O60896 24-148 partner): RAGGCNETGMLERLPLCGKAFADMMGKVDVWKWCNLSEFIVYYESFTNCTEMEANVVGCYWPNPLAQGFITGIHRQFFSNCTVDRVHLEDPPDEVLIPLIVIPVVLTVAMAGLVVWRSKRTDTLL
The experiment in a line: Assay (II)a functional CRE-luciferase assay, human amylin receptor. The class given is cell-based. The note with it: Table 2; BHK amylin 3(a)-receptor/CRE-luc cells.

The target of data set [2] is T2, human calcitonin receptor (Homo sapiens, UniProt P30988).
T2 construct: expressed in transfected cells; host or cells: BHK570
T2 sequence (P30988 25-474): T1 sequence (P30988 25-474)
The experiment in a line: Assay (II)a functional CRE-luciferase assay, human calcitonin receptor. The format is cell-based. Conditions: Table 7; human calcitonin (CTa) receptor.

A short description of data set [3]: Assay (III) ThT fibrillation assay for physical stability. The format is physicochemical. A digest of the protocol: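 Freshly prepared formulations, pH-adjusted, with 1 μM ThT; four or eight replicates incubated at 37 °C under 960 rpm orbital shaking. Fluorescence (ex 444/em 485 nm) read every 20 min; […]. Peptide concentration measured by RP-HPLC before and after the run.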

Data set [4] is described as follows: Assay (IV) determination of solubility. The class given is physicochemical. A digest of the protocol: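 Polypeptide in water (~500 nmol/ml stock) was mixed 1:1 with 100 mM buffers from pH 3.0 to 8.0 (glycylglycine pH 3.0–5.0; bistrispropane pH 6.0–8.0). After 18 hours at room temperature, samples were centrifuged and the polypeptide remaining in solution was quantified by HPLC.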

[5] abbreviates: bistrispropane buffer, pH 6, pH 6.0, read-out: Solubility pH 6.0.
[6] abbreviates: bistrispropane buffer, pH 6.5, pH 6.5, read-out: Solubility pH 6.5.
Where [7] appears, read: bistrispropane buffer, pH 7, pH 7.0, 18 hours at room temperature, Table 3, read-out: Solubility pH 7.0.
The mark [8] stands for this setting: bistrispropane buffer, pH 7, pH 7.0, read-out: Solubility pH 7.0.
[9] abbreviates: bistrispropane buffer, pH 7.5, pH 7.5, read-out: Solubility pH 7.5.
[10] abbreviates: bistrispropane buffer, pH 8, pH 8.0, read-out: Solubility pH 8.0.
[11] abbreviates: glycylglycine buffer, pH 3, pH 3.0, read-out: Solubility pH 3.0.
Where [12] appears, read: glycylglycine buffer, pH 4, pH 4.0, 18 hours at room temperature, Table 2, read-out: Solubility pH 4.0.
[13] abbreviates: glycylglycine buffer, pH 4, pH 4.0, read-out: Solubility pH 4.0.
Setting [14] is: glycylglycine buffer, pH 5, pH 5.0, read-out: Solubility pH 5.0.

In brackets after ≈: the same amount, converted by molar mass. Like-named read-outs stand apart in the source and are kept apart here. Starred links: 1 amine or outer side, 2 acyl side, 3 side chain; linkers in the order of their positions; H or OH if unused. Positions of bridges follow the written chain, without caps; N, C: chain ends. Residues, ends and D or L forms follow the SMILES beside them. *: point of attachment. C20 diacid = O=C(O)CCCCCCCCCCCCCCCCCCC(=O)*; γGlu = O=C(O)[C@H](CCC(=O)[*:2])N[*:1]

The values below come from US8722849B2, “Polypeptides” (Novo Nordisk A/S, priority 2011, dated 2014).

Regarding `CC[C@H](C)[C@H](NC(=O)[C@@H]1CCCN1C(=O)CNC(=O)[C@H](Cc1ccccc1)NC(=O)[C@H](CC(N)=O)NC(=O)[C@H](CC(N)=O)NC(=O)[C@H](CO)NC(=O)[C@H](CO)NC(=O)[C@H](Cc1c[nH]cn1)NC(=O)[C@H](Cc1c[nH]cn1)NC(=O)[C@H](CC(C)C)NC(=O)[C@H](Cc1ccccc1)NC(=O)[C@H](CCC(=O)O)NC(=O)[C@H](C)NC(=O)[C@H](CC(C)C)NC(=O)[C@H](CCCCN)NC(=O)[C@H](CCC(N)=O)NC(=O)[C@@H](NC(=O)[C@H](C)NC(=O)[C@@H]1CSSC[C@H](NC(=O)[C@H](CCCCN)NC(=O)CC[C@H](NC(=O)CCCCCCCCCCCCCCCCCCC(=O)O)C(=O)O)C(=O)N[C@@H](CC(N)=O)C(=O)N[C@@H]([C@@H](C)O)C(=O)N[C@@H](C)C(=O)N[C@@H]([C@@H](C)O)C(=O)N1)[C@@H](C)O)C(=O)N[C@@H](CC(C)C)C(=O)N1CCC[C@H]1C(=O)N1CCC[C@H]1C(=O)N[C@H](C(=O)N[C@@H](CC(N)=O)C(=O)N[C@H](C(=O)NCC(=O)N[C@@H](CO)C(=O)N[C@@H](CC(N)=O)C(=O)N[C@H](C(=O)N1CCC[C@H]1C(N)=O)[C@@H](C)O)C(C)C)[C@@H](C)O` [Example 145, N-alpha-[(S)-4-Carboxy-4-(19-carboxynonadecanoylamino)butyryl]-[Lys11,Glu14,His17,Pro37]-pramlintide] ({C20 diacid-γGlu}-KCNTATCATQKLAEFLHHSSNNFGPILPPTNVGSNTP-NH2; disulfide 2-7 (inferred)), the EC50 (as a rule, the concentration at which the effect is half-maximal) in data set [1] is 80.5 pM; in data set [2] it was 83 pM. Also, the “ThT pH 4.0 lag time” value in data set [3] (Table 8), in data set [3] (Table 9) and in data set [3] (ThT fibrillation assay) was over 45 h throughout. Further, in data set [3] (ThT fibrillation assay), the “ThT pH 4.0 lag time (h)” value is recorded as over 45 h. For the same compound, the solubility (as a rule, the concentration that dissolves in the medium under given conditions) at 18 h was 178 µM (≈ 776 µg/mL) in data set [4] (setting [5]); over 200 µM in data set [4] (setting [6]); over 200 µM in data set [4] (setting [7]); over 200 µM in data set [4] (bistrispropane buffer, pH 7, pH 7.0, Table 8, read-out: Solubility pH 7.0); over 200 µM in data set [4] (bistrispropane buffer, pH 7, pH 7.0, Table 9, read-out: Solubility pH 7.0); over 200 µM in data set [4] (setting [8]). For the same compound, the solubility at 18 h in data set [4] (bistrispropane buffer, pH 7.5, pH 7.5, Table 9, read-out: Solubility pH 7.5) is over 200 µM; in data set [4] (setting [9]), over 200 µM; in data set [4] (setting [10]), over 200 µM; in data set [4] (setting [11]) it was over 200 µM; in data set [4] (setting [12]), over 200 µM; in data set [4] (setting [13]), over 200 µM. Besides, the solubility at 18 h in data set [4] (setting [14]) was over 200 µM.

With `CC[C@H](C)[C@H](NC(=O)[C@@H]1CCCN1C(=O)CNC(=O)[C@H](Cc1ccccc1)NC(=O)[C@H](CC(N)=O)NC(=O)[C@H](CC(N)=O)NC(=O)[C@H](CO)NC(=O)[C@H](CO)NC(=O)[C@H](Cc1c[nH]cn1)NC(=O)[C@H](Cc1c[nH]cn1)NC(=O)[C@H](CC(C)C)NC(=O)[C@H](Cc1ccccc1)NC(=O)[C@H](CCC(=O)O)NC(=O)[C@H](C)NC(=O)[C@H](CC(C)C)NC(=O)[C@H](CCCNC(=N)N)NC(=O)[C@H](CCC(N)=O)NC(=O)[C@@H](NC(=O)[C@H](C)NC(=O)[C@@H]1CSSC[C@H](NC(=O)[C@H](CCC(=O)O)NC(=O)[C@H](CCCNC(=N)N)NC(=O)[C@H](CCC(=O)O)NC(=O)[C@H](CCC(=O)O)NC(=O)CCCCCCCCCCCCCCCCCCC(=O)O)C(=O)N[C@@H](CC(N)=O)C(=O)N[C@@H]([C@@H](C)O)C(=O)N[C@@H](C)C(=O)N[C@@H]([C@@H](C)O)C(=O)N1)[C@@H](C)O)C(=O)N[C@@H](CC(C)C)C(=O)N1CCC[C@H]1C(=O)N1CCC[C@H]1C(=O)N[C@H](C(=O)N[C@@H](CC(N)=O)C(=O)N[C@H](C(=O)NCC(=O)N[C@@H](CO)C(=O)N[C@@H](CC(N)=O)C(=O)N[C@H](C(=O)N1CCC[C@H]1C(N)=O)[C@@H](C)O)C(C)C)[C@@H](C)O` [Example 125, N-alpha-(19-carboxynonadecanoyl)-Glu-Glu-Arg-[Glu1,Glu14,His17,Pro37]-pramlintide] ({C20 diacid}-EERECNTATCATQRLAEFLHHSSNNFGPILPPTNVGSNTP-NH2; disulfide 5-10 (inferred); C-terminus assumed), the EC50 in data set [1] was found to be 288 pM; in data set [2], 443 pM. The “ThT pH 4.0 lag time (h)” value in data set [3] (ThT fibrillation assay) was determined as 19 h. For the same compound, the solubility at 18 h in data set [4] (setting [5]), in data set [4] (setting [6]), in data set [4] (setting [7]), in data set [4] (setting [8]), in data set [4] (setting [9]) and in data set [4] (setting [10]) was over 200 µM each time. Moreover, the solubility at 18 h in data set [4] (setting [11]), in data set [4] (setting [12]), in data set [4] (setting [13]) and in data set [4] (setting [14]) was over 200 µM each time.

In the case of `CC[C@H](C)[C@H](NC(=O)[C@@H]1CCCN1C(=O)CNC(=O)[C@H](Cc1ccccc1)NC(=O)[C@H](CC(N)=O)NC(=O)[C@H](CC(N)=O)NC(=O)[C@H](CO)NC(=O)[C@H](CO)NC(=O)[C@H](Cc1c[nH]cn1)NC(=O)[C@H](CCCNC(=N)N)NC(=O)[C@H](CC(C)C)NC(=O)[C@H](Cc1ccccc1)NC(=O)[C@H](CCC(=O)O)NC(=O)[C@H](C)NC(=O)[C@H](CC(C)C)NC(=O)[C@H](CCCNC(=N)N)NC(=O)[C@H](CCC(N)=O)NC(=O)[C@@H](NC(=O)[C@H](C)NC(=O)[C@@H]1CSSC[C@H](NC(=O)[C@H](CCCCN)NC(=O)[C@H](Cc2c[nH]cn2)NC(=O)[C@H](Cc2c[nH]cn2)NC(=O)CC[C@H](NC(=O)CCCCCCCCCCCCCCCCCCC(=O)O)C(=O)O)C(=O)N[C@@H](CC(N)=O)C(=O)N[C@@H]([C@@H](C)O)C(=O)N[C@@H](C)C(=O)N[C@@H]([C@@H](C)O)C(=O)N1)[C@@H](C)O)C(=O)N[C@@H](CC(C)C)C(=O)N1CCC[C@H]1C(=O)N1CCC[C@H]1C(=O)N[C@H](C(=O)N[C@@H](CC(N)=O)C(=O)N[C@H](C(=O)NCC(=O)N[C@@H](CO)C(=O)N[C@@H](Cc1c[nH]cn1)C(=O)N[C@H](C(=O)N[C@@H](Cc1ccc(O)cc1)C(N)=O)[C@@H](C)O)C(C)C)[C@@H](C)O` [Example 69, N-alpha-[(S)-4-Carboxy-4-(19-carboxynonadecanoylamino)butyryl]-His-His-[Glu14,Arg17,His35]-pramlintide] ({C20 diacid-γGlu}-HHKCNTATCATQRLAEFLRHSSNNFGPILPPTNVGSHTY-NH2; disulfide 4-9 (inferred)), the EC50 in data set [1] turned out to be 101 pM; in data set [2], 614 pM. The “ThT pH 4.0 lag time” value in data set [3] (ThT fibrillation assay) is listed as over 45 h. Also, the “ThT pH 4.0 lag time (h)” value in data set [3] (ThT fibrillation assay) is over 45 h. Besides, the solubility at 18 h in data set [4] (setting [5]) was over 200 µM; in data set [4] (setting [6]), 158 µM (≈ 754 µg/mL); in data set [4] (setting [8]), 6 µM (≈ 28.6 µg/mL); in data set [4] (setting [9]), 2 µM (≈ 9.54 µg/mL); in data set [4] (setting [10]), 24 µM (≈ 115 µg/mL); in data set [4] (setting [11]), over 200 µM. For the same compound, the solubility at 18 h in data set [4] (setting [12]), in data set [4] (setting [13]) and in data set [4] (setting [14]) was over 200 µM throughout.
